Data as given in patent EP2982368A1, “Small molecule compounds displacing focal adhesion core components” (Universität Konstanz, priority 2014, dated 2016).

Tests used:
FAK/Paxillin = molecular target: T1, FAK/Paxillin (Mus musculus, UniProt P34152+Q8VI36); experiment: FAK/Paxillin displacement by structurally related compounds (FootLocker series, confocal microscopy); format: cell-based
T1 construct: expressed in transfected cells; host or cells: mouse fibroblasts stably expressing GFP-FAK
Description: To determine whether compounds structurally related to Mb31 and Mb36 are likewise suitable to interfere with FAK localization at focal adhesions, mouse fibroblasts stably expressing GFP-FAK were treated for 30 min with 1, 10 or 20 µM of the following compounds: trans-3-hydroxy-β-nitrostyrene (THBN), trans-4-Chloro-β-nitrostyrene (T4CN), trans-β-nitrostyrene (TBN), 4-chlorocinnamic acid (4CA), and trans-3-(4-bromothiophen-2-yl)acrylic acid (T34BA) (Figures 16 and 17). The cells were analyzed by confocal microscopy for GFP-FAK localization. DMSO treatment served as a vehicle control. […] Additional substituents at the aromatic structures, such as halogen atoms or hydroxy groups may contribute to the reactivity of the compound, but are not essential. Based on these findings, the inventors have extended their structure activity-relationship studies and synthesized additional related compounds, which, similar to Mb31, displace FAK and paxillin at concentrations below 10µM (++), displace FAK and paxillin at concentrations above 10 µM (+), or lack FAK and paxillin displacing activity (-). All these substances were then also nicknamed in the FLocker terminology, resulting in FLocker1 - FLocker24 (Table 2). Table 2: Overview of FootLocker nomenclature, their chemical notation/structure and the activity towards FAK/Paxillin displacement

[1] = system: MDA-MB-231 breast cancer cells; experiment: In vitro wound healing assay; format: cell-based, human; details: 3 µM, 25 h, serum-containing growth medium
Description: Image J was used to automatically quantify FAK-containing focal adhesions due to local maxima of fluorescence intensity in the GFP-channel (5 to 70 pixel). The number of cells was automatically counted in the Hoechst channel. To test reproducibility of the system 40 control wells were quantified wherein four positions for each well were imaged. […] GFP-FAK mouse embryonic fibroblasts were seeded on fibronectin and incubated for 1 h with the indicated concentrations of the small compounds, respectively. […] GFP-FAK mouse embryonic fibroblasts were seeded on fibronectin and serum-starved overnight. The indicated concentrations of Mb31 were applied for 30 min. Cells were lysed and analyzed for paxillin and FAK protein level as well as FAK Tyr397 phosphorylation. […] The purified kinase domain of FAK was incubated with increasing amounts of Mb31 for 1 h at 30°C together with poly-Glu-Tyr as a FAK substrate. […] Serum-starved GFP-FAK mouse embryonic fibroblasts were stimulated with normal growth medium and incubated for 5 h with the indicated concentrations of the small molecule compounds, respectively. Cell viability was assessed by MTT assay. […] GFP-FAK MEFs were seeded on fibronectin and serum-starved overnight. Migration was stimulated by replacing the medium with normal growth medium. Migration of single cells was tracked for 8 h in 30 min intervals. Migration was recorded from cells that were cultured without serum (A), with serum (B) or with serum in the presence of 3 µM Mb31 (C). […] (A) GFP-FAK MEFs were seeded and serum-starved as in Figure 10. Cell migration was stimulated with normal growth medium and single cells were tracked for 5 h. (B) Mb31 was added and the same cells were tracked for additional 5 h. (C) Mean velocities of differently treated cells were plotted over time. […] NIH-v-Src fibroblasts were seeded on 2 µg/ml FN in DMEM/0.5%BSA and stimulated with 10 ng/ml EGF or kept unstimulated. […] Mouse embryonic fibroblasts (MEFs) were transfected with talin-mCherry and talin dynamics analyzed in focal adhesions using fluorescence recovery after photobleaching (FRAP). Cells were left untreated (A) or treated with 10 µM of Mb31 (B). In untreated cells, the mCherry intensity recovered, indicating replacement of bleached by non-bleached talin and therefore turnover of talin at focal adhesions. […] (C) Wound closure was microscopically analyzed and evaluated using ImageJ software.
To determine if the migration of transformed cells can be blocked by FLocker1 and related compounds, human breast carcinoma cells (MDA-MB-231) were used in in vitro wound healing assays. […] The ability of the cells to migrate and close the wound space was monitored by microscopy and quantified (Figure 18B and C).

NIH-v-Src fibroblasts = experiment: EGF-stimulated cell migration of transformed cells; format: cell-based; details: 10 ng/ml EGF, tracked 6 h before and 6 h after addition
Description: Image J was used to automatically quantify FAK-containing focal adhesions due to local maxima of fluorescence intensity in the GFP-channel (5 to 70 pixel). The number of cells was automatically counted in the Hoechst channel. To test reproducibility of the system 40 control wells were quantified wherein four positions for each well were imaged. […] GFP-FAK mouse embryonic fibroblasts were seeded on fibronectin and incubated for 1 h with the indicated concentrations of the small compounds, respectively. […] GFP-FAK mouse embryonic fibroblasts were seeded on fibronectin and serum-starved overnight. The indicated concentrations of Mb31 were applied for 30 min. Cells were lysed and analyzed for paxillin and FAK protein level as well as FAK Tyr397 phosphorylation. […] The purified kinase domain of FAK was incubated with increasing amounts of Mb31 for 1 h at 30°C together with poly-Glu-Tyr as a FAK substrate. […] Serum-starved GFP-FAK mouse embryonic fibroblasts were stimulated with normal growth medium and incubated for 5 h with the indicated concentrations of the small molecule compounds, respectively. Cell viability was assessed by MTT assay. […] GFP-FAK MEFs were seeded on fibronectin and serum-starved overnight. Migration was stimulated by replacing the medium with normal growth medium. Migration of single cells was tracked for 8 h in 30 min intervals. Migration was recorded from cells that were cultured without serum (A), with serum (B) or with serum in the presence of 3 µM Mb31 (C). […] (A) GFP-FAK MEFs were seeded and serum-starved as in Figure 10. Cell migration was stimulated with normal growth medium and single cells were tracked for 5 h. […] Mouse embryonic fibroblasts (MEFs) were transfected with talin-mCherry and talin dynamics analyzed in focal adhesions using fluorescence recovery after photobleaching (FRAP). […] (C) Wound closure was microscopically analyzed and evaluated using ImageJ software.
To further determine whether Mb31 interferes with cell motility, GFP-FAK MEFs were serum-stimulated and migration was quantified on a single cell basis (Figures 11 and 12). […]

T1 sequence (P34152 whole entry): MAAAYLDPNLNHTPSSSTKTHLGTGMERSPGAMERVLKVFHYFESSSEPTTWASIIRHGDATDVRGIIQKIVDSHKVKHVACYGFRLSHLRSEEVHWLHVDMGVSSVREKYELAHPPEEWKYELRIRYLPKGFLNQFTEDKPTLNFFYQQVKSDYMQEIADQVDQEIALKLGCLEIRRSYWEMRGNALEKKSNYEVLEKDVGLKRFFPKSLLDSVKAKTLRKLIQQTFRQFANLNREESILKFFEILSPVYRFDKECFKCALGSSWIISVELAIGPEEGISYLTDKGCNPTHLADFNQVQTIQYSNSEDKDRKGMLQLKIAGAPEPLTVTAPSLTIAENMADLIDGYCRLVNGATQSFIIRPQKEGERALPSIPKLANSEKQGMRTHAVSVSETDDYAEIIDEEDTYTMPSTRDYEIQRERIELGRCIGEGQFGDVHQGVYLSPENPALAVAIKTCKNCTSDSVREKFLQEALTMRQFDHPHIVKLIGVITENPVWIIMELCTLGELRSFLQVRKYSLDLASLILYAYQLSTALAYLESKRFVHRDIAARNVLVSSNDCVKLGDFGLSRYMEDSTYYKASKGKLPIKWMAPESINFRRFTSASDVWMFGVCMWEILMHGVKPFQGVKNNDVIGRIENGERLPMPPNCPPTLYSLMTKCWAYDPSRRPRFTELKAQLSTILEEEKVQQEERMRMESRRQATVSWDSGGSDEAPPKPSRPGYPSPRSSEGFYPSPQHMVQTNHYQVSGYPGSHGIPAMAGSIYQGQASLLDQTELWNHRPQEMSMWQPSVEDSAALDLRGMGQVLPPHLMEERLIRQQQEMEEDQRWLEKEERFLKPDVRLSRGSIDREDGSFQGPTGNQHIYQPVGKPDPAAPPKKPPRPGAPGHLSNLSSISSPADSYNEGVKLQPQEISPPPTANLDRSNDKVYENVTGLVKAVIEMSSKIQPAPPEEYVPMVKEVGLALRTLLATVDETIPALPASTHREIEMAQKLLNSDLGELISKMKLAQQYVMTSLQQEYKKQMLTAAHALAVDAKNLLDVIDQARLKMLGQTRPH
T1 sequence (Q8VI36 whole entry): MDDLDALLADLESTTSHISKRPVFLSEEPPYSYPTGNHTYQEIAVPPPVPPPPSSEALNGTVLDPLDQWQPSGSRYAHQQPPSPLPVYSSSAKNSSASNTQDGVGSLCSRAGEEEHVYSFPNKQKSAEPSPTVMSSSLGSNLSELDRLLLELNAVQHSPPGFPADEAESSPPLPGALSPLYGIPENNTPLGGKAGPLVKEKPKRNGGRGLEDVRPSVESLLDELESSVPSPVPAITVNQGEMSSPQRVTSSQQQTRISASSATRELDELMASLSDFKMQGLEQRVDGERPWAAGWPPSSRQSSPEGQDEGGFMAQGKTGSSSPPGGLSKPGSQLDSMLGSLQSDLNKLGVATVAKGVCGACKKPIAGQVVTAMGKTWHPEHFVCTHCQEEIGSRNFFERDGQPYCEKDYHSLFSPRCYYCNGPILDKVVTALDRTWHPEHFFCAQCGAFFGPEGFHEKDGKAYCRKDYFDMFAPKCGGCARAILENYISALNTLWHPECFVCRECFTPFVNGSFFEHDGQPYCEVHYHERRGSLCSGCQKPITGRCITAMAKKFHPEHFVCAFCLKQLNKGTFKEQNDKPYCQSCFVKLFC

Compound | compounds showing the most prominent effect on protein-protein interactions at focal adhesion site (FAK/Paxillin) | disruption of protein-protein interactions at focal adhesion site (FAK/Paxillin) | migration of cancer cells / wound closure [1] | FAK displacing ability (FAK/Paxillin; GFP-FAK mouse fibroblasts, 30 min, 1, 10 or 20 µM) | migration of EGF-stimulated cells (NIH-v-Src fibroblasts)
O=[N+]([O-])/C=C/c1ccccc1F [FootLocker 9, (E)-1-fluoro-2-(2-nitrovinyl) benzene] | most prominent effect | efficiently disrupt protein-protein interactions at focal adhesion site | retarded the migration of the cancer cells | – | –
O=C(O)/C=C/c1cc(Br)cs1 [FootLocker 24, trans-3-(4-Bromothiophen-2-yl)acrylic acid, reference compound] | – | – | – | without FAK displacing ability | no effect
O=[N+]([O-])/C=C/c1cccc(O)c1 [FootLocker 3, (E)-3-(2-nitrovinyl)phenol] | most prominent effect | efficiently disrupt protein-protein interactions at focal adhesion site | retarded the migration of the cancer cells | – | –
O=[N+]([O-])/C=C/c1ccc(F)cc1 [FootLocker 14, (E)-1-fluoro-4-(2-nitrovinyl)benzene] | most prominent effect | efficiently disrupt protein-protein interactions at focal adhesion site | retarded the migration of the cancer cells | – | –
CN(c1ccccc1CNc1nc(Nc2ccc3c(c2)CC(=O)N3)ncc1C(F)(F)F)S(C)(=O)=O [PF431396] | – | – | – | – | efficiently inhibit the migration
